Patent US7678784B2, “Oxime-containing macrocyclic acyl guanidines as β-secretase inhibitors” (Bristol-Myers Squibb Company, priority 2006, dated 2010)
Where two headings read alike, the source gives them in different places.

Columns and labels:
[1] = rcm bond, Grubbs 1st generation catalyst, dichloromethane, 65.0 °C
[2] = biological target: T1, BACE1 enzyme (Homo sapiens, UniProt P56817); experiment: Radioligand displacement assay with a radiolabeled BACE inhibitor on HEK293-9B.A1 cell homogenate; type: binding; details: displacement of 1 nM tritiated radioligand, HEK293-9B.A1 homogenate, pH 5.0, 1.5 hr at 25° C.; read-out: Activity Rating (Activity based on IC50 values)
T1 construct: The HEK293-9B.A1 cell line, which overexpresses the BACE1 enzyme, was derived from HEK293 cells; endogenous in cells; washed 48,000 x g pellet of cell homogenate
T1 sequence (P56817 46-501): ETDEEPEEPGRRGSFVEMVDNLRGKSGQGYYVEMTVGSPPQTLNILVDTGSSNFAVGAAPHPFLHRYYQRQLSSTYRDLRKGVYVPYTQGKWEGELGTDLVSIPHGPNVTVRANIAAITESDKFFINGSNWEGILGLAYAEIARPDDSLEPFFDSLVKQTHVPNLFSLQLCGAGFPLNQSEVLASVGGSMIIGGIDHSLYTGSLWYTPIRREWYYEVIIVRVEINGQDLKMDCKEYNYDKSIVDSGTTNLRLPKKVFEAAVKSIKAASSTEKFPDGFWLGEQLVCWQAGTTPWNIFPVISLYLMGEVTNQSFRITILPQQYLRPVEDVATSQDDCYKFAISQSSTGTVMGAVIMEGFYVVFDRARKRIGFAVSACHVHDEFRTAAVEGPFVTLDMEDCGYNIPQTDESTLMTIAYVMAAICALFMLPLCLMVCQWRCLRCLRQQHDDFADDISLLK
Description: There are a number of methods by which inhibitors of the BACE enzyme can be identified experimentally. The enzyme can be obtained from membrane samples from natural tissues or cultured cells or can be expressed recombinantly in a host cell by well known methods of molecular biology. The whole enzyme or a portion thereof can be expressed, for example, in bacterial, insect or mammalian cells to obtain a catalytically active enzyme species. The enzymatic activity and/or ligand binding capability of the enzyme can be assessed within these membrane samples, or the enzyme can be purified to varying extents. As an illustrative example, the nucleic acid sequence encoding the pro and catalytic domains of human BACE can be appended on the 5′ end with an untranslated and signal sequence from the gene for acetylcholinesterase, and on the 3′ end with a sequence encoding a poly-histidine tag. This cDNA can then be expressed in Drosophila melanogaster S2 cells in which the signal and pro sequences of the transcribed/translated protein are removed by cellular proteases and the catalytic domain, appended by a C-terminal poly-histidine tag, is secreted out into the cellular medium. The enzyme can then be purified from the culture medium by nickel affinity chromatography by methods well known to those trained in the art [Mallender, W. et al., “Characterization of recombinant, soluble beta-secretase from an insect cell expression system.” Mol. Pharmacol. 2001, 59: 619-626]. Similar strategies for expressing and purifying various forms of BACE in bacterial, mammalian and other cell types would be known to one skilled in the art. A preferred method for determining the potency of a test compound in binding to the BACE enzyme is by monitoring the displacement of a suitable radioligand.
Radioligand displacement assays with a radiolabeled BACE inhibitor (WO 2004 013098, compound 3, where the methoxy group is substituted for C(^3H)3) were carried out using standard methods (Keen, M. (1999) in Receptor Binding Techniques (Walker, J. M. ed) p. 106 Humana Press, Totowa, N.J.). The HEK293-9B.A1 cell line, which overexpresses the BACE1 enzyme, was derived from HEK293 cells (Simmons, N. L. (1990) A cultured human renal epitheloid cell line responsive to vasoactive intestinal peptide. Exp. Physiol. 75:309-19.) by RAGE™ M (Harrington, J. J. et al. (2001) Creation of genome-wide protein expression libraries using random activation of gene expression. Nat. Biotechnol. 19:440-5; U.S. Pat. Nos. 6,410,266 and 6,361,972). T225 flask cultures of HEK293-9B.A1 were grown to 80% confluency in DMEM supplemented with 2 mM L-glutamine, 10 μg/ml penicillin, 10 μg/ml streptomycin, 3 μg/ml puromycin, 100 nM methotrexate, and 10% fetal bovine serum (Invitrogen, Carlsbad, Calif.), harvested, and resuspended at 2×10^8 cells per 10 ml of lysis buffer consisting of 50 mM HEPES pH 7.0 containing a protease inhibitor cocktail of AEBSF 104 μM, aprotinin 80 nM, leupeptin 2 μM, bestatin 4 μM, pepstatin A 1.5 μM, and E-64 1.4 μM (0.1% of protease inhibitor cocktail P8340, Sigma-Aldrich, St. Louis, Mo.) at 4° C. The resuspended cells were homogenized using a Polytron (Brinkman, Westbury, N.Y.) at setting 6 for 10 sec., then centrifuged at 48,000×g for 10 min. The resulting pellet was washed by repeating the resuspension, homogenization and centrifugation steps. The final pellet was resuspended in buffer at 4° C. to yield a total protein concentration of 5 mg/ml, then aliquots were frozen in liquid nitrogen for further storage at −70° C. Immediately before carrying out a binding assay, an aliquot of cell homogenate was thawed and diluted to a concentration of 100 μg/ml in assay buffer consisting of 50 mM HEPES pH 5.0 and 0.1% CHAPSO. […]

SMILES	IC50 [2] [nM]	further results
CCON=C1CC(=O)N=C(NC(=O)OC(C)(C)C)NCc2cc(Cl)c(c(Cl)c2)NC(=O)CN(C(=O)OC(C)(C)C)CC=CCOc2ccc1cc2	–	ring closure, yield of all isomers ([1]; from C=CCOc1ccc(C(CC(=O)N=C(NCc2cc(Cl)c(NC(=O)CN(CC=C)C(=O)OC(C)(C)C)c(Cl)c2)NC(=O)OC(C)(C)C)=NOCC)cc1, 2.85 mM, 4.0 h): 82.8%
CCON=C1CC(=O)N=C(NC(=O)OC(C)(C)C)NCc2cc(Cl)c(c(Cl)c2)NC(=O)CN(C(=O)OC(C)(C)C)CCC=CCOc2ccc1cc2	–	ring closure, yield of all isomers ([1]; from C=CCCN(CC(=O)Nc1c(Cl)cc(CNC(=NC(=O)CC(=NOCC)c2ccc(OCC=C)cc2)NC(=O)OC(C)(C)C)cc1Cl)C(=O)OC(C)(C)C, 3.0 mM, 4.0 h): 69.1%
CCON=C1CC(=O)N=C(NC(=O)OC(C)(C)C)NCc2cc(Cl)c(c(Cl)c2)NC(=O)CN(C(=O)OC(C)(C)C)CCCC=CCOc2ccc1cc2	–	ring closure, yield of all isomers ([1]; from C=CCCCN(CC(=O)Nc1c(Cl)cc(CNC(=NC(=O)CC(=NOCC)c2ccc(OCC=C)cc2)NC(=O)OC(C)(C)C)cc1Cl)C(=O)OC(C)(C)C, 2.62 mM, 1.5 h): 82.9%
CCON=C1CC(=O)N=C(NC(=O)OC(C)(C)C)NCc2cc(Cl)c(c(Cl)c2)NC(=O)CN(C(=O)OC(C)(C)C)CCCCC=CCOc2ccc1cc2	–	ring closure, yield of all isomers ([1]; from C=CCCCCN(CC(=O)Nc1c(Cl)cc(CNC(=NC(=O)CC(=NOCC)c2ccc(OCC=C)cc2)NC(=O)OC(C)(C)C)cc1Cl)C(=O)OC(C)(C)C, 2.93 mM, 2.0 h): 80.5%
CCON=C1CC(=O)/N=C(\N)NCc2cc(Cl)c(c(Cl)c2)NC(=O)CNCC=CCOc2ccc1cc2 (single isomer, unassigned; isomer a) [Example 1, Isomer A of 4-amino-23,26-dichloro-13-oxa-3,5,18,21-tetraazatricyclo[20.2.2.2^9,12]octacosa-1(24),4,9,11,15,22,25,27-octaene-6,8,20-trione 8-(O-ethyloxime)]	> 50	–
CCON=C1CC(=O)N=C(N)NCc2cc(Cl)c(c(Cl)c2)NC(=O)CNCCC=CCOc2ccc1cc2 (single isomer, unassigned; isomer a) [Example 4, Isomer A of 4-amino-24,27-dichloro-13-oxa-3,5,19,22-tetraazatricyclo-[21.2.2.29,12]nonacosa-1(25),4,9,11,15,23,26,28-octaene-6,8,21-trione 8-(O-ethyloxime)]	5 to 50	–
CCON=C1CC(=O)N=C(N)NCc2cc(Cl)c(c(Cl)c2)NC(=O)CNCCCC=CCOc2ccc1cc2 (single isomer, unassigned; isomer a) [Example 7, Isomer A of 4-amino-25,28-dichloro-13-oxa-3,5,20,23-tetraazatricyclo[22.2.2.29,12]triaconta-1(26),4,9,11,15,24,27,29-octaene-6,8,22-trione 8-(O-ethyloxime)]	< 5	–
CCON=C1CC(=O)/N=C(\N)NCc2cc(Cl)c(c(Cl)c2)NC(=O)CNCC=CCOc2ccc1cc2 (single isomer, unassigned; isomer b) [Example 2, Isomer B of 4-amino-23,26-dichloro-13-oxa-3,5,18,21-tetraazatricyclo-[20.2.2.2^9,12]octacosa-1(24),4,9,11,15,22,25,27-octaene-6,8,20-trione 8-(O-ethyloxime)]	> 50	–
CCON=C1CC(=O)N=C(N)NCc2cc(Cl)c(c(Cl)c2)NC(=O)CNCCC=CCOc2ccc1cc2 (single isomer, unassigned; isomer b) [Example 5, Isomer B of 4-amino-24,27-dichloro-13-oxa-3,5,19,22-tetraazatricyclo-[21.2.2.29,12]nonacosa-1(25),4,9,11,15,23,26,28-octaene-6,8,21-trione 8-(O-ethyloxime)]	5 to 50	–
CCON=C1CC(=O)N=C(N)NCc2cc(Cl)c(c(Cl)c2)NC(=O)CNCCCC=CCOc2ccc1cc2 (single isomer, unassigned; isomer b) [Example 8, Isomer B of 4-amino-25,28-dichloro-13-oxa-3,5,20,23-tetraazatricyclo-[22.2.2.29,12]triaconta-1(26),4,9,11,15,24,27,29-octaene-6,8,22-trione 8-(O-ethyloxime)]	< 5	–
CCON=C1CC(=O)N=C(N)NCc2cc(Cl)c(c(Cl)c2)NC(=O)CNCCCCOc2ccc1cc2 [Example 3, 4-Amino-23,26-dichloro-13-oxa-3,5,18,21-tetraazatricyclo[20.2.2.2^9,12]-octacosa-1(24),4,9,11,22,25,27-heptaene-6,8,20-trione 8-(O-ethyloxime)]	5 to 50	–
CCON=C1CC(=O)N=C(N)NCc2cc(Cl)c(c(Cl)c2)NC(=O)CNCCCCCOc2ccc1cc2 [Example 6]	5 to 50	–
CCON=C1CC(=O)N=C(N)NCc2cc(Cl)c(c(Cl)c2)NC(=O)CNCCCCCCOc2ccc1cc2 [Example 9, 4-Amino-25,28-dichloro-13-oxa-3,5,20,23-tetraazatricyclo[22.2.2.2^9,12]-triaconta-1(26),4,9,11,24,27,29-heptaene-6,8,22-trione 8-(O-ethyloxime)]	< 5	–
CCON=C1CC(=O)N=C(N)NCc2cc(Cl)c(c(Cl)c2)NC(=O)CNCCCCC=CCOc2ccc1cc2 [Example 10, 4-Amino-26,29-dichloro-13-oxa-3,5,21,24-tetraazatricyclo-[23.2.2.2^9,12]hentriaconta-1(27),4,9,11,15,25,28,30-octaene-6,8,23-trione 8-(O-ethyloxime)]	< 5	–
CCON=C1CC(=O)N=C(N)NCc2cc(Cl)c(c(Cl)c2)NC(=O)CNCCCCCCCOc2ccc1cc2 [Example 11, 4-Amino-26,29-dichloro-13-oxa-3,5,21,24-tetraazatricyclo-[23.2.2.2^9,12]hentriaconta-1(27),4,9,11,25,28,30-heptaene-6,8,23-trione 8-(O-ethyloxime)]	< 5	–
